Measurements published in patent US20070148258A1, “Dialysates and methods and systems related thereto” (priority 2003, published 2007).
Read-outs that look alike come from different tables or passages of the source.

What was measured:
injured aortas = tested on: injured aortas
Method: Injured aortas were incubated for 6 days in DMEM containing 3.8 mM PO4^−3 and varying concentrations of pyrophosphate. Results are means of at least 4 aortic rings.

[1] = 4 L PPi in physiologic saline, 400 ml/min, dialysate without calcium 800 ml/min, 2.1 m^2 cellulose acetate membrane
Method: FIG. 2 is an exemplary graph illustrating the results of in vitro dialysis of pyrophosphate. […] The concentration of pyrophosphate was measured at the times indicated. The line represents a single exponential fit.
(§1) Several studies were undertaken to determine the extent of PPi removal with dialysis. […] In 17 patients, some of whom were included in the predialysis data, plasma PPi concentration was measured before and after dialysis (FIG. 3).

aortic cultures = settings: based on rate of hydrolysis of [32P]pyrophosphate
[2] = human, in vivo
Method: To determine whether PPi metabolism is altered in hemodialysis patients, plasma levels and dialytic clearance of PPi were measured in stable hemodialysis patients. Predialysis plasma samples were obtained from 15 patients in an outpatient dialysis unit and from 23 inpatients. The inpatients were clinically stable and were admitted for transplant evaluation or for dialysis access problems.

[3] = human, in vivo; remark: listed apart in the source
Method: Samples were drawn immediately before and immediately after dialysis from the predialyzer tubing. The lines to the left and right indicate the mean values before and after dialysis respectively.
as §1
Dialysate was collected during 4 treatments in 4 different patients order to measure the total amount of PPi removed.

normal aortas = assay: Calcification of normal aortas cultured in high-PO4 medium with added enzymes; type: cell-based, rat; settings: enzyme added to culture in DMEM with 3.8 mM PO4 (inorganic pyrophosphatase 12-20 units/ml, 9 days)

| In vitro dialyzer clearance of PPi [1] [%] | Estimated pyrophosphate concentration 3 days after adding (aortic cultures; 5 μM added) [µM] | Estimated pyrophosphate concentration 3 days after adding (aortic cultures; 10 μM added) [µM] | Estimated pyrophosphate concentration 3 days after adding (aortic cultures; 30 μM added) [µM] | Mean plasma [PPi] lower in hemodialysis patients than in normal subjects [2] [%] | Decrease of plasma PPi concentration after dialysis, range [3] | Compound | Inhibition of calcification in injured aortas (injured aortas; 2.5 M pyrophosphate, 6 days in DMEM with 3.8 mM PO4) | Concentrations at which inhibition of vascular calcification occurs in vitro (injured aortas; concentrations normally present in human plasma) [µM] | Concentration that maximally inhibited calcification in injured aortas (injured aortas; cultured rat aortas) | Effect on calcification of normal aortas (normal aortas) |
| --- | --- | --- | --- | --- | --- | --- | --- | --- | --- | --- |
| 36 | 18 | 3.1 | 7.9 | 31 | 4-59% | O=P(O)(O)OP(=O)(O)O [pyrophosphate] | no inhibition | 3 to 5 | approximately 3 μM | – |
| – | – | – | – | – | – | Alkaline phosphatase | – | – | – | induced calcification |
